From article PMC11601581 (bioRxiv, 2024)

Biological target: NTSR1 (Homo sapiens, UniProt P30989)
Assay: BRET1 β-arrestin1/2 recruitment to NTSR1, ligand alone
Assay type: cell-based

Chain of NTSR1 (P30989 whole entry): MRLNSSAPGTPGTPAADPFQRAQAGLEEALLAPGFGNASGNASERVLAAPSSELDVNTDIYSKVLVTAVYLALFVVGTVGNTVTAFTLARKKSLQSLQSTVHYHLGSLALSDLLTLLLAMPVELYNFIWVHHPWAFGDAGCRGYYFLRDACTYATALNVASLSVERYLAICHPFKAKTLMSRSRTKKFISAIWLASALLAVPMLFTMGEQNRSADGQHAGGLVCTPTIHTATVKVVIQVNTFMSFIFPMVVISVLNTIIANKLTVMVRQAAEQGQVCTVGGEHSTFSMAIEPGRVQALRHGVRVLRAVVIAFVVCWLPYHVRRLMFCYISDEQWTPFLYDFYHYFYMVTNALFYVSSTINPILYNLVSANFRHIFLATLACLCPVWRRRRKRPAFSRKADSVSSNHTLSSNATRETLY

agonist efficacy (β-arrestin1): without effect
agonist efficacy (β-arrestin2): without effect
Structure (SMILES): COc1cccc(OC)c1-c1cc(C(=O)NC2(C(=O)O)C3CC4CC(C3)CC2C4)nn1-c1ccc(C(=O)N(C)CCCN(C)C)cc1C(C)C (centres unmarked) [SR142948A]
